Experimental findings from the METLIN SMRT retention time set (Domingo-Almenara et al. 2019) are described below.

Each structure is given as a SMILES string.

The nature of this series: gradient 5% acetonitrile 3 min, to 50% in 2 min, to 85% in 15 min, held 3 min, 100 µL/min. The following applies: column: Zorbax Extend-C18 2.1 x 50 mm; eluents: water / acetonitrile, 0.1% formic acid. A digest of the protocol: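 A Zorbax Extend-C18 column (2.1 × 50 mm, 1.8 μm) run at 100 μL/min with water and acetonitrile, both containing 0.1% formic acid, separated mixtures of ~100 pure standards. The HPLC was coupled to a quadrupole time-of-flight mass spectrometer operated in positive and negative ionization mode, with dead and dwell volumes of 40 μL and 900 μL. Each retention time was taken from a computationally picked adduct peak that was then manually inspected.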
`O=C1C(OC2CCN(Cc3cc(F)ccc3F)CC2)CCN1C1CCCC1` (centres undefined): the RP-LC retention time was 641 s.
The value for `CN(C)C/C=C/C(=O)Nc1cc2c(Nc3ccc(F)c(Cl)c3)ncnc2cc1O[C@H]1CCOC1` was 632 s.
The same measure for `CCCc1noc(-c2ccnc(-n3cnc(C(=O)NC4CCCCCC4)c3)c2)n1`: 1060 s; for `O=C(c1ccco1)N1CCCN(C2CCN(Cc3ccc(F)cc3)C2=O)CC1` (centres undefined): 565 s.
The same measure for `CCCNc1nc(-c2cccc(Br)c2)cs1`: 1030 s.
On to `COc1ccc(-c2cc(N3CCC(NC(=O)c4ccccc4Br)C3)n[nH]2)cc1` (centres undefined), for which the RP-LC retention time is 688 s.
`CCN1C(=O)COc2ccc(-c3nc(NC(=O)C4CCCO4)sc3C)cc21` (centres undefined): the RP-LC retention time was 844 s.
The value for `COc1ccc(C(=O)CC2(O)C(=O)Nc3ccc(C)cc32)c(OC)c1OC` (centres undefined) was 722 s; that for `COc1ccc(C(=O)N2C(C(=O)NC(C)C)COC23CCN(C(=O)CC(C)(C)C)CC3)cc1` (centres undefined) was 713 s.
As to `Cc1nc(NC(=O)C2CCCN(c3ccc(-n4cccn4)nn3)C2)sc1C` (centres undefined), the RP-LC retention time is 699 s.
The molecule `Cc1nc(-c2cc(S(=O)(=O)Nc3cccc(Cl)c3C)c(C)s2)cs1` showed an RP-LC retention time of 1120 s.
The value for `Clc1cccc(-c2nnc(-c3nc(NCCC4=CCCCC4)c4ccccc4n3)o2)c1` was 1370 s; that for `O=C(NCc1ccc2c(c1)OCO2)C1CCN(C(=O)c2ccccc2F)CC1` was 719 s.
The value for `CC1=C(C(=O)N2CCOCC2)C(c2ccc(Br)cc2)C2=C(CCCC2=O)N1` (centres undefined) was 670 s.
The value for `O=C(NCc1ccc(F)c(Cl)c1)C1CCN(c2ncnc3c2oc2ccccc23)CC1` was 781 s.
As to `COc1ccccc1CNC(=O)Cn1ccc2ccc(N3CCOCC3)nc21`, the RP-LC retention time stood at 858 s.
The value for `Cc1cccc(Cn2nc3ccc(S(=O)(=O)N4CCCCC4)cn3c2=O)c1` was 915 s; that for `COc1ccccc1C(=O)N1CCCC1COc1ccc(C(=O)NC2CC2)cc1` (centres undefined) was 759 s; that for `CCc1ccccc1S(=O)(=O)NCc1c(-c2ccccc2)nc2sc(C)nn12` was 940 s.
The same measure for `O=C(NCCCc1ccccc1)c1nc(Cn2c(=O)oc3ccccc32)no1`: 952 s; for `CCc1nc(-c2csc(S(=O)(=O)N3CCCC(C(=O)N4CCOCC4)C3)c2)no1` (centres undefined): 796 s; for `COc1cc(OC)cc(C(=O)Nc2nc(C(=O)NC(C)c3ccccc3)cs2)c1` (centres undefined): 873 s.
With `CC(C)CCNC(=O)NCCn1nnc2cc(C(=O)N3CCCC3)ccc21`, the RP-LC retention time came out at 657 s.
`CC(C)(C)c1cc(C(=O)Nc2cc(F)ccc2F)nc2ccnn12`: the RP-LC retention time was found to be 1450 s.
Take `CCc1nc(-c2csc(S(=O)(=O)N3CCCC(C(=O)Nc4c(C)cccc4CC)C3)c2)no1` (centres undefined): the RP-LC retention time was found to be 1080 s.
Turning to `CCN(CC)CCNC(=O)CN1CC(C)Sc2ccccc21` (centres undefined), the RP-LC retention time stood at 656 s.
`Cc1ccc(NC(=O)C2CCc3sc(C(=O)N(C)C)cc3C2)c(C)c1` (centres undefined): the RP-LC retention time was found to be 799 s.
The value for `Cc1ccc(C)c(N2CCN(c3ccnc(SCC(=O)NC4CCCC4)n3)CC2)c1` was 886 s.
In the case of `Cc1cnc(C2CC2)n1CCNC(=O)C1CC(=O)N(C2CCCCC2)C1` (centres undefined), the RP-LC retention time worked out at 594 s.
The same measure for `COCc1cc(=O)n(CC(=O)Nc2ccc(OC)c(OC)c2)c(N2CCOCC2)n1`: 702 s; for `Cc1cc(NC(=O)C2CCCN(c3ccc(=O)n(-c4ccc(F)cc4)n3)C2)ccc1Br` (centres undefined): 899 s.
In the case of `CCC(C)NC(=O)Cn1c2ccccc2c2ncn(Cc3nc(-c4ccccc4)no3)c(=O)c21` (centres undefined), the RP-LC retention time came to 882 s.
`COC(=O)c1nc(NC(=O)Cn2nc3c(cc2=O)CCCCC3)sc1CC(C)C` gave an RP-LC retention time of 941 s.
The same measure for `CCn1cnc(S(=O)(=O)N2CCC(C(=O)Nc3ccc(OC)c(OC)c3)CC2)c1`: 704 s; for `O=c1c2cc(-c3ccccc3)nn2ccn1Cc1noc(CN2CCc3ccccc3C2)n1`: 818 s; for `Cn1c(CCc2cccc(NC(=O)C3CCN(S(=O)(=O)N4CCCC4)CC3)c2)nc2ccccc21`: 672 s.
Turning to `Cn1c(=O)c(SCC(=O)NCc2cccc(Br)c2)nc2cccnc21`, the RP-LC retention time was 806 s.
In turn, `Cc1cc2c(c(=O)n(-c3ccc(F)cc3)c(=O)n2CC(=O)Nc2ccccc2F)n1C` came in with an RP-LC retention time of 837 s.
As for `Cc1c(C(=O)NC2CC2)cnn1-c1ccc(SCc2ccccc2)nn1`, the RP-LC retention time came out at 866 s.
`Cc1cnc(-c2ccncc2)n1C1CCCN(S(=O)(=O)c2cn(C)cn2)C1` (centres undefined) gave an RP-LC retention time of 557 s.
`O=C(COc1ccc(F)cc1)Nc1ccccc1NC(=O)c1ccccc1Cl` displayed an RP-LC retention time of 853 s.
The molecule `COc1ccc(N2CC(c3noc(-c4ccccc4F)n3)CC2=O)cc1OC` (centres undefined) yielded an RP-LC retention time of 818 s.
The value for `Cc1ccccc1CC(=O)Nc1cc(-c2cccs2)no1` was 969 s.
The molecule `COCCNc1c(-c2cccc(F)c2)nc2sc(C(=O)N3CCCC3)c(C)n12` showed an RP-LC retention time of 783 s.
The value for `CC(C)CNC(=O)CN1CCN(Cc2cccc(Cl)c2)C1=O` was 748 s; that for `O=C(Cc1ccccc1F)N1C[C@H]2CNC(=O)[C@]23CCCC[C@@H]13` was 683 s.
The value for `Cc1cc(C)cc(C(=O)N2CC=C(C(=O)NC3CC3)CC2)c1` was 755 s; that for `O=c1[nH]cc(S(=O)(=O)N2CCc3ccccc3C2)c(=O)[nH]1` was 663 s.
`CCNC(=O)C1CCc2sc(C(=O)N3CCCCC3)cc2C1` (centres undefined) showed an RP-LC retention time of 694 s.
Molecule `COc1ccc(OC)c(NC(=O)N2CCC(N3CCN(Cc4ccc(C)cc4)C(=O)C3=O)CC2)c1` gave an RP-LC retention time of 758 s.
The molecule `O=C(NC1CC1)C1CCCN(c2nccn3nc(-c4ccccc4Cl)cc23)C1` (centres undefined) registered an RP-LC retention time of 788 s.
The molecule `O=C(NCC1(O)CCc2ccccc21)Nc1ccccc1Cl` (centres undefined) showed an RP-LC retention time of 762 s.
The value for `Cc1nc2c(nc1C)C(=O)c1ccccc1C2=O` was 655 s.
The same measure for `Cc1nc(CC(=O)NC(C)c2ccc(F)cc2)sc1C(=O)NC1CC1` (centres undefined): 683 s.
The value for `N#CCCN1CCN(c2ccc(NC(=O)C3CCC3)c(C(=O)O)c2)CC1` was 586 s; that for `COc1ccc(CC(=O)Nc2cc3c(cc2SC(C)C)n(C)c(=O)n3C)cc1` was 923 s.
As for `CC(C)N1CCN(S(=O)(=O)c2ccc(-c3nnc(C4CCC4)o3)o2)CC1`, the RP-LC retention time was determined as 637 s.
In turn, `CCn1cc(-c2nc(C(=O)Nc3cc(OC)ccc3OC)cs2)c2cccnc21` showed an RP-LC retention time of 1170 s.
For the molecule `CCN(CC)C(=O)Cn1c(=O)c2cnc(-c3ccc(C)cc3)nc2n(C)c1=O`, the RP-LC retention time stood at 985 s.
The same measure for `COc1ccccc1-c1nnc(-c2ccc(C)c(S(=O)(=O)N3CCC(C)CC3)c2)o1`: 1150 s; for `Cc1cnc(-c2ccncc2)n1CC1CCN(S(=O)(=O)c2ccc3c(c2)OCCO3)C1` (centres undefined): 626 s; for `CCn1cc(-c2nc(CC(=O)Nc3ccccc3C)cs2)c2cccnc21`: 980 s.
For `O=C(C1CCCN(c2ncc(-c3cccc(F)c3)cn2)C1)N1CCC(N2CCCCC2)CC1` (centres undefined), the RP-LC retention time amounted to 689 s.
The value for `CC(C)n1c(=O)sc2cc(S(=O)(=O)N3CCC(C(=O)NCc4cccnc4)CC3)ccc21` was 808 s.
The value for `N#Cc1ncc(Cl)c2ccccc12` was 1020 s; that for `COc1ccc(OC)c(C2CN(C(=O)c3ccc4c(c3)OCO4)CC2C(=O)N2CCCC2)c1` (centres undefined) was 723 s; that for `COc1ccc(-c2noc(-c3nnn4c3COC(c3ccc(Cl)cc3)C4)n2)c(OC)c1` (centres undefined) was 1140 s.
The same measure for `O=C(Nc1ccc(F)c(F)c1)C1CCN(C(=O)C2Sc3ccccc3NC2=O)CC1` (centres undefined): 810 s.
Molecule `O=C1CCCCC(Cc2ccccc2)(C(=O)N2CCc3ccccc3C2)N1` (centres undefined) came in with an RP-LC retention time of 836 s.
With `CCN1C(=O)CCc2cc(NS(=O)(=O)Cc3cccc(Cl)c3)ccc21`, the RP-LC retention time was found to be 846 s.
The value for `Cc1ccc(C(=O)CC2(O)C(=O)Nc3c(C)cccc32)cc1` (centres undefined) was 748 s; that for `CCCOc1nc2ccccc2nc1N1CCCC(C(=O)NC2CCCC2)C1` (centres undefined) was 1180 s; that for `Cc1noc(C2CN(C(=O)Nc3cccc(C)c3C)CC23CCOCC3)n1` (centres undefined) was 715 s.
The same measure for `Cc1nnc2c(=O)n(CC(=O)N3CCN(c4ccccn4)CC3)c3cccnc3n12`: 548 s; for `CCOc1ccccc1CNc1nccc(-n2nc(C)cc2C)n1`: 894 s; for `COc1ccc(CNC(=O)CSc2cc(N3CCN(c4ccccc4OC)CC3)ncn2)cc1`: 1090 s.
With `CC(C)Cn1c(=O)c(C(=O)NCc2cccc(F)c2)nc2cccnc21`, the RP-LC retention time is 609 s.
`CCNC(=O)C1CCCN(c2nc3ncn(CC(=O)Nc4ccccc4OCC)c(=O)c3s2)C1` (centres undefined) displayed an RP-LC retention time of 700 s.
`CC(C)Cn1c(=O)c(C(=O)NCCN2CCCCC2)nc2cccnc21` showed an RP-LC retention time of 552 s.
